The text below walks through data of patent publication US20160183556A1, “METHOD FOR PRODUCING FEED ADDITIVE CONTAINING SURFACTIN” (SAFT biotechnology com. LTD, priority 2014, published 2016).

For one data set, the system named is Aeromonas hydrophila. As to the kind of experiment: in vitro susceptibility test (MIC). The settings on record: 16 h, 37° C., OD540, read-out: minimum inhibiting concentration (MIC). Format: cell-based. The protocol: (§1) To examine whether surfactin has antimicrobial activity, in vitro susceptibility test was conducted.
(§2) Preparation of bacterial culture of Escherichia coli DH5α, Vibrio harveyi, Vibrio alginolyticus, Vibrio anguillarum, Vibrio salmonicida, Aeromonas hydrophila and Staphylococcus epidermidis by inoculation of these bacteria onto LBA (E. coli·DH5α) or TSA (+1.5% NaCl) and incubation at 37° C. for 16 hours. Later, the colonies were scraped off and dissolved in specific medium; the concentration was adjusted to OD540 of 1 (1×10^9 colonies/c.c. culture medium), 100 μl of bacterial culture were add to 900 μl of LB or TSB (+1.5% NaCl) to give a concentration of […].
(§3) An aliquot of 130 μl of the bacterial culture was added to each well of a 96-well plate, the concentration of bacterial culture was 5×10^5 CFU/ml, 20 μl of surfactin at different concentrations prepared by titration were added and incubated at 37° C. for 16 hours. A spectrophotometer was used to calculate the concentration of bacterial growth and the obtained data was compared with the original value (OD540=1), the concentration of the experimental group that equals to the original value is used as the minimum inhibiting concentration (MIC). Each group was prepared in triplicate and a control group was included.

Another data set has as its system Escherichia coli DH5α. The data set is described as follows: in vitro susceptibility test (MIC). It is filed as cell-based. The settings on record: E. coli, 37° C. On the procedure: as §1, §2, §3
The subject of data set [1] is Staphylococcus epidermidis. As to the kind of experiment: in vitro susceptibility test (MIC). Format: cell-based. The settings on record: 37° C., OD540, read-out: minimum inhibiting concentration (MIC). The protocol:
as §1, §2, §3

The test system of another data set is Vibrio alginolyticus. As to the kind of experiment: in vitro susceptibility test (MIC). The settings on record: 37° C., OD540, read-out: minimum inhibiting concentration (MIC). Format: cell-based. On the procedure: as §1, §2, §3
The test system of a further data set is Vibrio anguillarum. The data set is described as follows: in vitro susceptibility test (MIC). Format: cell-based. The settings on record: 37° C., OD540, read-out: minimum inhibiting concentration (MIC). On the procedure:
as §1, §2, §3

A further data set concerns Vibrio harveyi. As to the kind of experiment: in vitro susceptibility test (MIC). It is filed as cell-based. The settings on record: 37° C., OD540, read-out: minimum inhibiting concentration (MIC). On the procedure:
as §1, §2, §3

The next data set has as its system Vibrio salmonicida. As to the kind of experiment: in vitro susceptibility test (MIC). It is filed as cell-based. The settings on record: 37° C., OD540, read-out: minimum inhibiting concentration (MIC). On the procedure: as §1, §2, §3
In another data set the test system is Aspergillus niger. The data set is described as follows: in vitro susceptibility test (MIC), fungal culture. It is filed as cell-based. The settings on record: read-out: minimum inhibiting concentration (MIC). On the procedure:
as §1
Aspergillus niger was inoculated onto the MEAIII plate and incubated at 25° C. for 48 hours, the colonies were scraped off into specific culture medium. Bacterial culture was spread onto the MEAIII plate after serial dilution and the number of colonies was calculated, the original concentration was determined to be 1×10^6 CFU/ml. An aliquot of 500 μl of the bacterial culture was add to 500 μl of MEB before diluting the concentration of bacterial culture to 5×10^5 CFU/ml.
as §3

The next data set deals with bacterial culture. As to the kind of experiment: in vitro susceptibility test (MIC), summary statement of the text. Format: cell-based. The protocol:
as §1, §2, §3

In a further data set the test system is nervous necrosis virus. The data set is described as follows: effect of surfactin on morphology of virus particles (transmission electron microscope). On the procedure:
Surfactin was dissolved in sterilized water and the solution was filtered with a 0.2 μm filter membrane, followed by dilution of dissolved surfactin in 1% FBS-L15 to give diluted surfactin solution at the concentrations of 40 μg/ml and […]. The surfactin treatment group: surfactin and virus in the volume ratio of 1:1 were mixed. Control group: 1% FBS-L15 culture medium with NNV culture were mixed and incubated at 28° C. for 1 day before examination under a transmission electron microscope (Hitachi H-600). An aliquot of 6 μl of the surfactin treatment group was dropped onto a copper mesh to allow precipitation of the virus for about 10 minutes before been stained in 1% phosphotungstic acid (PTA, Sigma) at pH 7.4. After staining, excess mixture was removed with filter paper and incubated at room temperature for 30 minutes. The sample was examined after the copper mesh was air-dried. The voltage used for transmission electron microscope was 75 KV and the exposure time of the film was 4 seconds. The removed negative film was placed on the rack and soaked in the developer D19 for 4 minutes to develop the image. After completion of development, the film was soaked in 0.33% glacial acetic acid to stop the reaction followed by 10 minutes in fixative. Finally, excess chemicals were removed by placing the film under running water for 60 minutes before drying.

The test system of another data set is Iridovirus. Described as above.
The conditions of data set [2]: surfactin 20 μM; reduced from 72 mN/m; cited from earlier work.

Converted amounts (≈) assume the structure as drawn. Like-named read-outs stand apart in the source and are kept apart here. Starred links: 1 amine or outer side, 2 acyl side, 3 side chain; linkers in the order of their positions; H or OH if unused. Positions of bridges follow the written chain, without caps; N, C: chain ends. Non-standard residues stand in square brackets, D forms with d. Residues, ends and D or L forms follow the SMILES beside them. X1 = CC(C)CCCCCCCCC[C@H](CC(=O)[*:1])O[*:2]

In the case of `CC(C)CCCCCCCCC[C@@H]1CC(=O)N[C@@H](CCC(=O)O)C(=O)N[C@@H](CC(C)C)C(=O)N[C@H](CC(C)C)C(=O)N[C@@H](C(C)C)C(=O)N[C@@H](CC(=O)O)C(=O)N[C@H](CC(C)C)C(=O)N[C@@H](CC(C)C)C(=O)O1` [surfactin] (EL[dL]VD[dL]L; linker N-C via X1), the MIC worked out at 129 µM (≈ 133 µg/mL) with Aeromonas hydrophila; 193 µM (≈ 200 µg/mL) in the data set on Escherichia coli DH5α (Escherichia coli, 16 h, OD540, read-out: minimum inhibiting concentration (MIC)); 129 µM (≈ 133 µg/mL) in data set [1] (16 h); 129 µM (≈ 133 µg/mL) with Vibrio alginolyticus (16 h); 129 µM (≈ 133 µg/mL) in the data set on Vibrio anguillarum (16 h); 129 µM (≈ 133 µg/mL) in the data set on Vibrio harveyi (16 h). For the same compound, the MIC in the data set on Vibrio salmonicida (Aliivibrio salmonicida, 16 h) stood at 129 µM (≈ 133 µg/mL); in the data set with Aspergillus niger, 193 µM (≈ 200 µg/mL); against bacterial culture, 96.5 µM (≈ 100 µg/mL). Moreover, the “morphology of nervous necrosis virus particles” value with nervous necrosis virus (40 μg/ml surfactin + nervous necrosis virus, FIG. 2A (D)) is “normal viral particles”; with nervous necrosis virus (100 μg/ml surfactin + nervous necrosis virus, FIG. 2A (E)), “abnormal viral particles”. Moreover, the “morphology of Iridovirus particles” value with Iridovirus (10 μg/ml surfactin + Iridovirus, FIG. 2B (B)) was “the appearance of said virus has changed”; in the data set with Iridovirus (40 μg/ml surfactin + Iridovirus, FIG. 2B (C)), “adhesion between surfactin and viruses is observed”. Besides, the “surface tension of water” value in data set [2] is recorded as 27 mN/m.

For the compound `CC(C)CCCCCCCCC[C@@H]1CC(=O)N[C@@H](CCC(=O)O)C(=O)N[C@@H](CC(C)C)C(=O)N[C@H](CC(C)C)C(=O)N[C@@H](C(C)C)C(=O)N[C@@H](CC(=O)O)C(=O)N[C@H](CC(C)C)C(=O)N[C@@H](CC(C)C)C(=O)O1` [surfactin produced by the high-yield mutant strain of Bacill] (EL[dL]VD[dL]L; linker N-C via X1), the MIC with Escherichia coli DH5α (16 hours, OD540, read-out: minimum inhibiting concentration (MIC)) is 96.5 µM (≈ 100 µg/mL); in data set [1] (16 hours) it was 96.5 µM (≈ 100 µg/mL); in the data set on Vibrio alginolyticus (16 hours), 96.5 µM (≈ 100 µg/mL); in the data set on Vibrio anguillarum (16 hours) it was 96.5 µM (≈ 100 µg/mL); with Vibrio harveyi (16 hours), 96.5 µM (≈ 100 µg/mL); with Vibrio salmonicida (16 hours), 96.5 µM (≈ 100 µg/mL). Further, in the data set on Aspergillus niger, the MIC was 128.7 µM (≈ 133 µg/mL).
